Source: US20080032978A1, “SOLUBLE EPOXIDE HYDROLASE INHIBITORS” (Arete Therapeutics, Inc., priority 2006, published 2008)

Key:
[1] = system: soluble epoxide hydrolase (sEH); assay: Fluorescent assay for mouse and human soluble epoxide hydrolase (CMNPC substrate); assay type: biochemical
Source text: Fluorescent Assay for Mouse and Human Soluble Epoxide Hydrolase Recombinant mouse sEH (MsEH) and human sEH (HsEH) were produced in a baculovirus expression system as previously reported. Grant et al., J. Biol. Chem., 268:17628-17633 (1993); Beetham et al., Arch. Biochem. Biophys., 305:197-201 (1993). The expressed proteins were purified from cell lysate by affinity chromatography. Wixtrom et al., Anal. […] Protein concentration was quantified using the Pierce BCA assay using bovine serum albumin as the calibrating standard. […] Solutions: Bis/Tris HCl 25 mM 7.0 containing 0.1 mg/mL of BSA (buffer […] at 0.25 mM in DMSO. Mother solution of enzyme in buffer A (Mouse sEH at 6 μg/mL and Human sEH at 5 μg/mL). Inhibitor dissolved in DMSO at the appropriate concentration. Protocol: In a black 96 well plate, fill all the wells with 150 μL of buffer A. Add 2 μL of DMSO in well A2 and A3, and then add 2 μL of inhibitor solution in A1 and A4 through A12. Add 150 μL of buffer A in a row A, then mix several time and transfer 150 μL to row B. Repeat this operation up to row H. The 150 μL removed from row H go to the trash. Add 20 μL of buffer A in column 1 and 2, then add 20 μL of enzyme solution to column 3 to 12. Incubate the plate for 5 minutes in the plate reader at 30° C. During incubation prepare the working solution of substrate by mixing 3.68 mL of buffer A (4×0.920 mL) with 266 μL (2×133 μL) of substrate solution). At t=0, add 30 μL of working substrate solution with multi-channel pipette labeled “Briggs 303” and start the reading ([S]final: 5 μM). Read with ex: 330 nm (20 nm) and em: 465 nm (20 nm) every 30 second for 10 minutes. The velocities are used to analyze and calculate the IC50s.

With `CN1CCN(C(=O)c2ccc(NC(=O)Nc3ccc(F)cc3)cc2)CC1` [Compound 24, 1-(4-Fluoro-phenyl)-3-[4-(4-methyl-piperazine-1-carbonyl)-phenyl]-urea] the “% I” value ([1]; Conc of I 500 nM) was 64%.
In the case of `COCCN1CCN(C(=O)c2ccc(NC(=O)Nc3ccc(OC(F)(F)F)cc3)cc2)CC1` [Compound 28, 1-{4-[4-(2-Methoxy-ethyl)-piperazine-1-carbonyl]-phenyl}-3-(4-trifluoromethoxy-phenyl)-urea], the “% I” value ([1]; Conc of I 50 nM) is reported as 91% and the melting point is reported as 235 to 240 °C.
In the case of `CN(C)CCN(C)C(=O)c1cccc(NC(=O)NC23CC4CC(CC(C4)C2)C3)c1` [Compound 38, 3-(3-Adamantan-1-yl-ureido)-N-(2-dimethylamino-ethyl)-N-methyl-benzamide], the “% I” value ([1]; Conc of I 500 nM) is reported as 81% and the melting point is reported as 89 to 94 °C.
With `CC(C)N1CCN(C(=O)c2cccc(NC(=O)Nc3ccc(C(F)(F)F)cc3)c2)CC1` [Compound 35, 1-[3-(4-Isopropyl-piperazine-1-carbonyl)-phenyl]-3-(4-trifluoromethyl-phenyl)-urea] the “% I” value ([1]; Conc of I 500 nM) was 92%.
In the case of `COCCN1CCN(C(=O)c2ccc(NC(=O)NC34CC5CC(CC(C5)C3)C4)cc2)CC1` [Compound 4, 1-Adamantan-1-yl-3-{4-[4-(2-methoxy-ethyl)-piperazine-1-carbonyl]-phenyl}-urea], the “% I” value ([1]; Conc of I 500 nM) is reported as 96% and the melting point is reported as 191 to 194 °C.
For `CC(C)N1CCN(C(=O)c2ccc(NC(=O)Nc3ccc(C(F)(F)F)cc3)cc2)CC1` [Compound 34, 1-[4-(4-Isopropyl-piperazine-1-carbonyl)-phenyl]-3-(4-trifluoromethyl-phenyl)-urea], the “% I” value ([1]; Conc of I 50 nM) was 93%.
For `CN1CCN(C(=O)c2ccc(NC(=O)Nc3ccc(C(F)(F)F)cc3)cc2)CC1` [Compound 18, 1-[4-(4-Methyl-piperazine-1-carbonyl)-phenyl]-3-(4-trifluoromethyl-phenyl)-urea], the “% I” value ([1]; Conc of I 50 nM) was 75%.
For `CN(CCN1CCOCC1)C(=O)c1ccc(NC(=O)Nc2ccc(C(F)(F)F)cc2)cc1` [Compound 41, N-Methyl-N-(2-morpholin-4-yl-ethyl)-4-[3-(4-trifluoromethyl-phenyl)-ureido]-benzamide], the “% I” value ([1]; Conc of I 50 nM) was 93%.
For `CN1CCN(C(=O)c2ccc(NC(=O)NC34CC5CC(CC(C5)C3)C4)cc2)CC1` [Compound 5, 1-Adamantan-1-yl-3-[4-(4-methyl-piperazine-1-carbonyl)-phenyl]-urea], the “% I” value ([1]; Conc of I 500 nM) was 96% and the melting point was 190 to 196 °C.
For `O=C(NC1CCCCC1)NC1CCC(C(=O)N2CCOCC2)CC1` (stereo not shown) [Compound 40, 1-Cyclohexyl-3-[4-(morpholine-4-carbonyl)-cyclohexyl]-urea], the “% I” value ([1]; Conc of I 500 nM) was 92% and the melting point was 159 to 163 °C.
With `O=C(Nc1ccc(Cl)cc1)Nc1ccc(C(=O)N2CCOCC2)c(F)c1` [Compound 14, 1-(4-Chloro-phenyl)-3-[3-fluoro-4-(morpholine-4-carbonyl)-phenyl]-urea] the “% I” value ([1]; Conc of I 50 nM) was 74%.
With `O=C(Nc1ccc(C(F)(F)F)cc1)Nc1cccc(C(=O)N2CCOCC2)c1` [Compound 15, 1-[3-(Morpholine-4-carbonyl)-phenyl]-3-(4-trifluoromethyl-phenyl)-urea] the “% I” value ([1]; Conc of I 500 nM) was 99%.
For `CN1CCN(C(=O)c2ccc(NC(=O)Nc3ccc(OC(F)(F)F)cc3)cc2)CC1` [Compound 27, 1-[4-(4-Methyl-piperazine-1-carbonyl)-phenyl]-3-(4-trifluoromethoxy-phenyl)-urea], the “% I” value ([1]; Conc of I 50 nM) was 84%.
With `O=C(NC1CCC(C(=O)N2CCOCC2)CC1)NC12CC3CC(CC(C3)C1)C2` (stereo not shown) [Compound 11, 1-Adamantan-1-yl-3-[4-(morpholine-4-carbonyl)-cyclohexyl]-urea] the “% I” value ([1]; Conc of I 500 nM) was 96% and the melting point was 128 to 131 °C.
In the case of `O=C(NC1CCC(C(=O)N2CCC(C(=O)O)CC2)CC1)NC12CC3CC(CC(C3)C1)C2` (stereo not shown) [Compound 21, 1-[4-(3-Adamantan-1-yl-ureido)-cyclohexanecarbonyl]-piperidine-4-carboxylic acid], the “% I” value ([1]; Conc of I 500 nM) is reported as 76%.
For `COCCN1CCN(C(=O)c2ccc(NC(=O)Nc3ccc(F)cc3)cc2)CC1` [Compound 25, 1-(4-Fluoro-phenyl)-3-{4-[4-(2-methoxy-ethyl)-piperazine-1-carbonyl]-phenyl}-urea], the “% I” value ([1]; Conc of I 500 nM) was 77% and the melting point was 248 to 250 °C.
In the case of `O=C(Nc1ccc(Cl)cc1)Nc1cccc(C(=O)N2CCOCC2)c1` [Compound 3, 1-(4-Chloro-phenyl)-3-[3-(morpholine-4-carbonyl)-phenyl]-urea], the “% I” value ([1]; Conc of I 500 nM) is reported as 88%.
With `O=C(Nc1ccc(Cl)cc1)Nc1ccc(C(=O)N2CCOCC2)cc1` [Compound 2, 1-(4-Chloro-phenyl)-3-[4-(morpholine-4-carbonyl)-phenyl]-urea] the “% I” value ([1]; Conc of I 500 nM) was 94%.
For `O=C(Nc1ccc(C(F)(F)F)cc1)Nc1ccc(F)c(C(=O)N2CCOCC2)c1` [Compound 16, 1-[4-Fluoro-3-(morpholine-4-carbonyl)-phenyl]-3-(4-trifluoromethyl-phenyl)-urea], the “% I” value ([1]; Conc of I 50 nM) was 87%.
In the case of `CN1CCN(C(=O)c2cc(NC(=O)Nc3ccc(C(F)(F)F)cc3)ccc2F)CC1` [Compound 33, 1-[4-Fluoro-3-(4-methyl-piperazine-1-carbonyl)-phenyl]-3-(4-trifluoromethyl-phenyl)-urea], the “% I” value ([1]; Conc of I 500 nM) is reported as 95%.
With `CN(CC(=O)O)C(=O)c1ccc(NC(=O)NC23CC4CC(CC(C4)C2)C3)cc1` [Compound 6, {[4-(3-Adamantan-1-yl-ureido)-benzoyl]-methyl-amino}-acetic acid] the “% I” value ([1]; Conc of I 5000 nM) was 93%.
For `O=C(Nc1cccc(C(=O)N2CCC(C(=O)O)CC2)c1)NC12CC3CC(CC(C3)C1)C2` [Compound 13, 1-[3-(3-Adamantan-1-yl-ureido)-benzoyl]-piperidine-4-carboxylic acid], the “% I” value ([1]; Conc of I 5000 nM) was 99%.
In the case of `O=C(Nc1ccc(C(F)(F)F)cc1)Nc1ccc(C(=O)N2CCOCC2)c(F)c1` [Compound 22, 1-[3-Fluoro-4-(morpholine-4-carbonyl)-phenyl]-3-(4-trifluoromethyl-phenyl)-urea], the “% I” value ([1]; Conc of I 50 nM) is reported as 97%.
For `O=C(Nc1ccc(Cl)cc1)Nc1cccc(C(=O)N2CCC(N3CCOCC3)CC2)c1` [Compound 10, 1-(4-Chloro-phenyl)-3-[3-(4-morpholin-4-yl-piperidine-1-carbonyl)-phenyl]-urea], the “% I” value ([1]; Conc of I 500 nM) was 87%.
In the case of `CN1CCN(C(=O)c2ccc(NC(=O)Nc3ccc(C(F)(F)F)cc3)cc2F)CC1` [Compound 30, 1-[3-Fluoro-4-(4-methyl-piperazine-1-carbonyl)-phenyl]-3-(4-trifluoromethyl-phenyl)-urea], the “% I” value ([1]; Conc of I 50 nM) is reported as 88%.
With `O=C(Nc1ccccc1)Nc1ccc(C(=O)N2CCOCC2)cc1` [Compound 1, 1-[4-(Morpholine-4-carbonyl)-phenyl]-3-phenyl-urea] the “% I” value ([1]; Conc of I 5000 nM) was 97%.
In the case of `O=C(Nc1ccc(OC(F)(F)F)cc1)Nc1ccc(C(=O)N2CCOCC2)cc1` [Compound 26, 1-[4-(Morpholine-4-carbonyl)-phenyl]-3-(4-trifluoromethoxy-phenyl)-urea], the “% I” value ([1]; Conc of I 50 nM) is reported as 88%.
With `O=C(Nc1ccc(Cl)cc1)Nc1ccc(C(=O)N2CCC(N3CCOCC3)CC2)cc1` [Compound 8, 1-(4-Chloro-phenyl)-3-[4-(4-morpholin-4-yl-piperidine-1-carbonyl)-phenyl]-urea] the “% I” value ([1]; Conc of I 5000 nM) was 96%.
For `O=C(Nc1ccc(C(=O)N2CCOCC2)cc1)Nc1ccc(C(F)(F)F)cc1` [Compound 17, 1-[4-(Morpholine-4-carbonyl)-phenyl]-3-(4-trifluoromethyl-phenyl)-urea], the “% I” value ([1]; Conc of I 50 nM) was 89%.
For `CC(C)N1CCN(C(=O)c2ccc(NC(=O)Nc3ccc(OC(F)(F)F)cc3)cc2)CC1` [Compound 32, 1-[4-(4-Isopropyl-piperazine-1-carbonyl)-phenyl]-3-(4-trifluoromethoxy-phenyl)-urea], the “% I” value ([1]; Conc of I 50 nM) was 92%.
With `O=C(Nc1ccc(F)cc1)Nc1ccc(C(=O)N2CCOCC2)cc1` [Compound 23, 1-(4-Fluoro-phenyl)-3-[4-(morpholine-4-carbonyl)-phenyl]-urea] the “% I” value ([1]; Conc of I 500 nM) was 69%.
With `CN1CCN(C(=O)c2cccc(NC(=O)Nc3ccc(C(F)(F)F)cc3)c2)CC1` [Compound 19, 1-[3-(4-Methyl-piperazine-1-carbonyl)-phenyl]-3-(4-trifluoromethyl-phenyl)-urea] the “% I” value ([1]; Conc of I 500 nM) was 94%.
In the case of `CN(CC(=O)O)C(=O)c1cccc(NC(=O)NC23CC4CC(CC(C4)C2)C3)c1` [Compound 7, {[3-(3-Adamantan-1-yl-ureido)-benzoyl]-methyl-amino}-acetic acid], the “% I” value ([1]; Conc of I 5000 nM) is reported as 90%.
